Assay results taken from patent US6355799B1, “Substituted benzene compounds, process for their preparation, and herbicidal and defoliant compositions containing them” (ISK Americas Incorporated, priority 1997, dated 2002).

Tests used:
Type in all cases: in vivo
[1] = system: redroot pigweed (Amaranthus retroflexus, AMARE); assay: Pre-emerge test, greenhouse herbicide activity screening; details: pre-emerge, rated 14 days after application, 0 = no damage, 100 = complete death
Procedure, shortened: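 Visual ratings on a 0-100 scale (0 no damage, 100 all plants dead) were taken at 14 days after treatment. Rates of 15-1000 g ai/ha in acetone, 187 l/ha, were sprayed onto soil one day after planting (pre-emerge) or onto 2-3 leaf plants with 0.25% v/v surfactant (post-emerge).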

[2] = system: johnsongrass (Sorghum halepense, SORHA); assay: Post-emerge test, greenhouse herbicide activity screening; details: Sorghum halepense, post-emergence, 336 h, phytotoxicity rating 0-100 (0 no damage, 100 complete death), 14 days after application, read-out: Post-emerge Herbicidal Activity SORHA; for pest or weed control at 63 g/ha: 63 g ai/ha; for pest or weed control at 250 g/ha: 250 g ai/ha
Procedure, shortened: (§1)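 Compounds in acetone were track-sprayed at 15–1000 g ai/ha: pre-emergence onto soil sown the previous day, then top-watered to incorporate and later bottom-watered; post-emergence onto 2–3 leaf plants with 0.25% v/v surfactant, bottom-watered only. Ratings on a 0–100 phytotoxicity scale were taken at day 14.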

[3] = system: green foxtail (Setaria viridis, SETVI); assay: as above; details: Setaria viridis, post-emergence, 336 h, phytotoxicity rating 0-100 (0 no damage, 100 complete death), 14 days after application, read-out: Post-emerge Herbicidal Activity SETVI; for pest or weed control at 63 g/ha: 63 g ai/ha; for pest or weed control at 250 g/ha: 250 g ai/ha
Procedure, shortened: as §1

[4] = system: sicklepod (Cassia obtusifolia, CASOB); assay: as above; details: Senna obtusifolia, post-emergence, 336 h, phytotoxicity rating 0-100 (0 no damage, 100 complete death), 14 days after application, read-out: Post-emerge Herbicidal Activity CASOB; for pest or weed control at 63 g/ha: 63 g ai/ha; for pest or weed control at 250 g/ha: 250 g ai/ha
Procedure, shortened: as §1

[5] = system: ivyleaf morningglory (Ipomoea hederacea, IPOHE); assay: as above; details: Ipomoea, post-emergence, 336 h, phytotoxicity rating 0-100 (0 no damage, 100 complete death), 14 days after application, read-out: Post-emerge Herbicidal Activity IPOHE; for pest or weed control at 63 g/ha: 63 g ai/ha; for pest or weed control at 250 g/ha: 250 g ai/ha
Procedure, shortened: as §1

[6] = system: large crabgrass (Digitaria sanguinalis, DIGSA); assay: as above; details: Digitaria sanguinalis, post-emergence, 336 h, phytotoxicity rating 0-100 (0 no damage, 100 complete death), 14 days after application, read-out: Post-emerge Herbicidal Activity DIGSA; for pest or weed control at 63 g/ha: 63 g ai/ha; for pest or weed control at 250 g/ha: 250 g ai/ha
Procedure, shortened: as §1

[7] = system: johnsongrass (Sorghum halepense, SORHA); assay: Pre-emerge test, greenhouse herbicide activity screening; details: pre-emerge, rated 14 days after application, 0 = no damage, 100 = complete death
Procedure, shortened: as §1

[8] = system: barnyardgrass (Echinochloa crus-galli, ECHCG); assay: as above; details: pre-emerge, rated 14 days after application, 0 = no damage, 100 = complete death
Procedure, shortened: as §1

[9] = system: green foxtail (Setaria viridis, SETVI); assay: as above; details: pre-emerge, rated 14 days after application, 0 = no damage, 100 = complete death
Procedure, shortened: as §1

[10] = system: velvetleaf (Abutilon theophrasti, ABUTH); assay: as above; details: pre-emerge, rated 14 days after application, 0 = no damage, 100 = complete death
Procedure, shortened: as §1

[11] = system: lambsquarters (Chenopodium album, CHEAL); assay: as above; details: pre-emerge, rated 14 days after application, 0 = no damage, 100 = complete death
Procedure, shortened: as §1

[12] = system: sicklepod (Cassia obtusifolia, CASOB); assay: as above; details: pre-emerge, rated 14 days after application, 0 = no damage, 100 = complete death
Procedure, shortened: as §1

[13] = system: ivyleaf morningglory (Ipomoea hederacea, IPOHE); assay: as above; details: pre-emerge, rated 14 days after application, 0 = no damage, 100 = complete death
Procedure, shortened: as §1

[14] = system: large crabgrass (Digitaria sanguinalis, DIGSA); assay: as above; details: pre-emerge, rated 14 days after application, 0 = no damage, 100 = complete death
Procedure, shortened: as §1

Structure (SMILES)	Pre-emerge Herbicidal Activity AMARE (phytotoxicity rating, scale 0-100) ([1]; 63 g ai/ha)	Pre-emerge Herbicidal Activity AMARE (phytotoxicity rating, scale 0-100) ([1]; 250 g ai/ha)	pest or weed control at 63 g/ha [2] [%]	pest or weed control at 250 g/ha [2] [%]	pest or weed control at 63 g/ha [3] [%]	pest or weed control at 250 g/ha [3] [%]	pest or weed control at 63 g/ha [4] [%]	pest or weed control at 250 g/ha [4] [%]	pest or weed control at 63 g/ha [5] [%]	pest or weed control at 250 g/ha [5] [%]	pest or weed control at 63 g/ha [6] [%]	pest or weed control at 250 g/ha [6] [%]	Pre-emerge Herbicidal Activity SORHA (phytotoxicity rating, scale 0-100) ([7]; 63 g ai/ha)	Pre-emerge Herbicidal Activity SORHA (phytotoxicity rating, scale 0-100) ([7]; 250 g ai/ha)	Pre-emerge Herbicidal Activity ECHCG (phytotoxicity rating, scale 0-100) ([8]; 63 g ai/ha)	Pre-emerge Herbicidal Activity ECHCG (phytotoxicity rating, scale 0-100) ([8]; 250 g ai/ha)	Pre-emerge Herbicidal Activity SETVI (phytotoxicity rating, scale 0-100) ([9]; 63 g ai/ha)	Pre-emerge Herbicidal Activity SETVI (phytotoxicity rating, scale 0-100) ([9]; 250 g ai/ha)	Pre-emerge Herbicidal Activity ABUTH (phytotoxicity rating, scale 0-100) ([10]; 63 g ai/ha)	Pre-emerge Herbicidal Activity ABUTH (phytotoxicity rating, scale 0-100) ([10]; 250 g ai/ha)	also measured
Cn1c(C(F)(F)F)cc(=O)n(-c2c(F)cc(Cl)c(OC(F)F)c2N)c1=O [Compound 1-38, 3-(2-amino-4-chloro-3-difluoromethoxy-6-fluorophenyl)-1-methyl-6-trifluoromethyl-2,4(1H, 3H)-pyrimidinedione]	100	100	0	80	10	80	50	90	80	100	10	80	90	100	95	100	100	100	100	100	Pre-emerge Herbicidal Activity CHEAL (phytotoxicity rating, scale 0-100) ([11]; 63 g ai/ha): 100; Pre-emerge Herbicidal Activity CHEAL (phytotoxicity rating, scale 0-100) ([11]; 250 g ai/ha): 100; Pre-emerge Herbicidal Activity CASOB (phytotoxicity rating, scale 0-100) ([12]; 63 g ai/ha): 100; Pre-emerge Herbicidal Activity CASOB (phytotoxicity rating, scale 0-100) ([12]; 250 g ai/ha): 100; Pre-emerge Herbicidal Activity IPOHE (phytotoxicity rating, scale 0-100) ([13]; 63 g ai/ha): 100; Pre-emerge Herbicidal Activity IPOHE (phytotoxicity rating, scale 0-100) ([13]; 250 g ai/ha): 100; Pre-emerge Herbicidal Activity DIGSA (phytotoxicity rating, scale 0-100) ([14]; 63 g ai/ha): 100; Pre-emerge Herbicidal Activity DIGSA (phytotoxicity rating, scale 0-100) ([14]; 250 g ai/ha): 100
COc1c(Cl)cc(F)c(-n2c(=O)cc(C(F)(F)F)n(C)c2=O)c1[N+](=O)[O-] [Compound 1-5, 3-(4-chloro-6-fluoro-3-methoxy-2-nitrophenyl)-1-methyl-6-trifluoromethyl-2,4(1H, 3H)-pyrimidinedione]	20	95	0	0	0	0	0	30	0	70	0	0	0	20	0	0	0	90	30	100	Pre-emerge Herbicidal Activity CHEAL (phytotoxicity rating, scale 0-100) ([11]; 63 g ai/ha): 60; Pre-emerge Herbicidal Activity CHEAL (phytotoxicity rating, scale 0-100) ([11]; 250 g ai/ha): 100; Pre-emerge Herbicidal Activity CASOB (phytotoxicity rating, scale 0-100) ([12]; 63 g ai/ha): 0; Pre-emerge Herbicidal Activity CASOB (phytotoxicity rating, scale 0-100) ([12]; 250 g ai/ha): 0; Pre-emerge Herbicidal Activity IPOHE (phytotoxicity rating, scale 0-100) ([13]; 63 g ai/ha): 0; Pre-emerge Herbicidal Activity IPOHE (phytotoxicity rating, scale 0-100) ([13]; 250 g ai/ha): 10; Pre-emerge Herbicidal Activity DIGSA (phytotoxicity rating, scale 0-100) ([14]; 63 g ai/ha): 0; Pre-emerge Herbicidal Activity DIGSA (phytotoxicity rating, scale 0-100) ([14]; 250 g ai/ha): 70
Cn1c(C(F)(F)F)cc(=O)n(-c2c(F)cc(Cl)c(O)c2N)c1=O [Compound 1-16, 3-(2-amino-4-chloro-6-fluoro-3-hydroxyphenyl)-1-methyl-6-trifluoromethyl-2,4(1H, 3H)-pyrimidinedione]	0	0	0	0	0	0	0	0	20	50	0	0	0	0	0	0	0	0	0	0	Pre-emerge Herbicidal Activity CHEAL (phytotoxicity rating, scale 0-100) ([11]; 63 g ai/ha): 0; Pre-emerge Herbicidal Activity CHEAL (phytotoxicity rating, scale 0-100) ([11]; 250 g ai/ha): 70; Pre-emerge Herbicidal Activity CASOB (phytotoxicity rating, scale 0-100) ([12]; 63 g ai/ha): 0; Pre-emerge Herbicidal Activity CASOB (phytotoxicity rating, scale 0-100) ([12]; 250 g ai/ha): 0; Pre-emerge Herbicidal Activity IPOHE (phytotoxicity rating, scale 0-100) ([13]; 63 g ai/ha): 0; Pre-emerge Herbicidal Activity IPOHE (phytotoxicity rating, scale 0-100) ([13]; 250 g ai/ha): 0; Pre-emerge Herbicidal Activity DIGSA (phytotoxicity rating, scale 0-100) ([14]; 63 g ai/ha): 0; Pre-emerge Herbicidal Activity DIGSA (phytotoxicity rating, scale 0-100) ([14]; 250 g ai/ha): 0
